Assays:
[1] = Evaluation of pharmacokinetics in mice; format: in vivo; details: mouse, plasma, po, ICR mice; for bioavailability: ig 10 mg/kg, (intragastric AUC×intravenous dosage)/(intravenous AUC×intragastric dosage)×100%, read-out: Fabs(%) absolute bioavailability; for Cmax / Tmax / half-life / AUC(0-t) / MRT last: ig, 10 mg/kg; for AUC(0-t): read-out: AUC(0-24); for MRT last: read-out: MRT(0-24)
Method: ICR mice (purchased from Shanghai Sippe-Bk Lab Animal Co., Ltd.) of 18-22 g were randomized into groups of 9 after 3-5 days of acclimatization and administered with the compounds at a dose of 10 mg/kg by intragastric administration. The animals to be tested (ICR mice) were fasted overnight before administration and food was provided 4 h after administration, and water was freely drunk before and after the experiment and during the experiment. After intragastric administration, about 0.1 mL of blood was collected from the orbit at 0.25 (15 min), 0.5 (30 min), 1, 2, 3, 4, 6, 8, 10, and 24 h (Each mouse was subjected to blood collection at 3-4 time points, with three mice per time point). The blood samples were mixed with EDTA-K2 anticoagulant, transferred to a centrifuge within 30 min, and then centrifuged at 4000 rpm for 10 min at 4° C. to separate the plasma. All the plasma samples were collected and immediately stored at −20° C. for testing.
300 μL of acetonitrile solution containing an internal standard (20 ng/ml diazepam) was added to 30 μL of the plasma sample and standard curve sample. The mixture was shaken and mixed well for 5 min, and centrifuged at 13.000 rpm for 10 min. 70 μL of supernatant was taken and diluted with 70 μL of ultrapure water. After being mixed well, 1 μL of the resulting sample was subjected to LC/MS/MS, and a chromatogram was recorded.
Oral exposure of the compounds was evaluated by in vivo pharmacokinetic experiments in mice. The relevant pharmacokinetic parameters were fitted by using DAS3.2.5 software, where absolute bioavailability Fabs(%)=(intragastric AUC×intravenous dosage)/(intravenous AUC×intragastric dosage)×100%.

[2] = target: T1, Ba/F3-BCR-ABL1-T315I-C3 cells (Homo sapiens, UniProt P00519, T315I, cells depend on it); experiment: Inhibitory effect of compounds on proliferation of BCR-ABL T315I-transfected Ba/F3 cells (CCK-8); format: cell-based; details: 72 h with compound, CCK-8, 5% serum, read-out: IC50 (nM) Ba/F3-BCR-ABL1 T315I
T1 construct: fused on or other part: P11274 (Breakpoint cluster region protein)
Method: Ba/F3-BCR-ABL1-T315I-C3 cells in logarithmic growth phase and good cell condition were added to a centrifuge tube and centrifuged at 1000 rpm for 5 min in a low speed centrifuge. The supernatant was discarded, and 5 mL of complete medium (RPMI 1640 basic medium+10% FBS) was added using a pipette for cell resuspension. The cells were counted using a cell counter, diluted with complete medium to a cell density of 6×10^4 cells/mL, and an equivalent amount of RPMI 1640 basic medium was added to adjust the serum concentration to 5% and the cell density to 3×10^4 cells/mL for plate seeding. The cells were seeded on a 96-well plate at 100 μL/well using a multi-channel pipette and cultured in a cell incubator at 37° C. 5% CO2 and saturated humidity. After 24 h incubation, compounds were loaded using a nanoliter pipettor, 8 concentrations (1000 nM, 250 nM, 63 nM, 16 nM, 3.9 nM, 0.98 nM, 0.24 nM, 0.061 nM) were set for each compound, and 2 replicate wells were set for each concentration; cells with no compounds added were taken as a negative control, and a plating medium with no cells added was taken as a blank control. After 72 h. […] Inhibition rate (%)=(mean value of negative control group−mean value of experimental group)/(mean value of negative control group−mean value of blank group)×100%. A dose-response curve was fitted by four-parameter analysis, with the logarithm of compound concentration serving as abscissa and inhibition rate serving as ordinate, such that ICso was calculated.

[3] = test system: K562 cells; experiment: Inhibitory effect of compounds on proliferation of K562 cells (CCK-8); format: cell-based; details: Homo sapiens, 72 h with compound, CCK-8, 5% serum
Method: K562 cells in logarithmic growth phase and good cell condition were added to a centrifuge tube and centrifuged at 1000 rpm for 5 min in a low speed centrifuge. […] The cells were seeded on a 96-well plate at 100 µL/well using a multi-channel pipette and cultured in a cell incubator at 37° ° C. 5% CO2 and saturated humidity. […] Inhibition rate (%)=(mean value of negative control group−mean value of experimental group)/(mean value of negative control group−mean value of blank group)×100%. A dose-response curve was fitted by four-parameter analysis, with the logarithm of compound concentration serving as abscissa and inhibition rate serving as ordinate, such that IC50 was calculated.

[4] = target: T2, hERG potassium channel (Homo sapiens, UniProt Q12809); experiment: Evaluation of cardiac safety: hERG potassium channel whole-cell patch clamp in HEK-293 cells; format: cell-based; details: HEK-293 cells over-expressing hERG potassium channel, tail current, room temperature
T2 construct: expressed in transfected cells; host or cells: HEK-293 cells, stably transformed
Method: The cell strains were derived from HEK-293 cells over-expressing hERG potassium channel. The cells were cultured in an incubator at 37° C. 5% CO2. […]
The stably-transformed cells were seeded onto a slide at a cell density of less than 50% and cultured overnight. […] Membrane currents were recorded by using a HEKA EPC-10 patch clamp amplifier and PATCHMASTER acquisition system (HEKA Instruments Inc., D-67466 Lambrecht. Pfalz. Germany) and analyzed and counted by using Origin 8.5 (OriginLab Corporation. Northampton. MA) software and Microsoft Excel (results in Table 4). […]
Channel currents were recorded in the experiments using a whole-cell recording mode. An extracellular fluid (approximately 2 mL per min) was firstly perfused, the process was continuously recorded, and the current was waited for stabilization (current decay (Run-Down) was less than 5% in 5 min); at this point, the tail current peak value was the control current value. Then, the extracellular fluid containing the test drug was perfused, and the process was continuously recorded until the inhibitory effect of the drug on the hERG current reached a stable state; at this point, the tail current peak value was the current value after dosing. […]

T2 sequence (Q12809 whole entry): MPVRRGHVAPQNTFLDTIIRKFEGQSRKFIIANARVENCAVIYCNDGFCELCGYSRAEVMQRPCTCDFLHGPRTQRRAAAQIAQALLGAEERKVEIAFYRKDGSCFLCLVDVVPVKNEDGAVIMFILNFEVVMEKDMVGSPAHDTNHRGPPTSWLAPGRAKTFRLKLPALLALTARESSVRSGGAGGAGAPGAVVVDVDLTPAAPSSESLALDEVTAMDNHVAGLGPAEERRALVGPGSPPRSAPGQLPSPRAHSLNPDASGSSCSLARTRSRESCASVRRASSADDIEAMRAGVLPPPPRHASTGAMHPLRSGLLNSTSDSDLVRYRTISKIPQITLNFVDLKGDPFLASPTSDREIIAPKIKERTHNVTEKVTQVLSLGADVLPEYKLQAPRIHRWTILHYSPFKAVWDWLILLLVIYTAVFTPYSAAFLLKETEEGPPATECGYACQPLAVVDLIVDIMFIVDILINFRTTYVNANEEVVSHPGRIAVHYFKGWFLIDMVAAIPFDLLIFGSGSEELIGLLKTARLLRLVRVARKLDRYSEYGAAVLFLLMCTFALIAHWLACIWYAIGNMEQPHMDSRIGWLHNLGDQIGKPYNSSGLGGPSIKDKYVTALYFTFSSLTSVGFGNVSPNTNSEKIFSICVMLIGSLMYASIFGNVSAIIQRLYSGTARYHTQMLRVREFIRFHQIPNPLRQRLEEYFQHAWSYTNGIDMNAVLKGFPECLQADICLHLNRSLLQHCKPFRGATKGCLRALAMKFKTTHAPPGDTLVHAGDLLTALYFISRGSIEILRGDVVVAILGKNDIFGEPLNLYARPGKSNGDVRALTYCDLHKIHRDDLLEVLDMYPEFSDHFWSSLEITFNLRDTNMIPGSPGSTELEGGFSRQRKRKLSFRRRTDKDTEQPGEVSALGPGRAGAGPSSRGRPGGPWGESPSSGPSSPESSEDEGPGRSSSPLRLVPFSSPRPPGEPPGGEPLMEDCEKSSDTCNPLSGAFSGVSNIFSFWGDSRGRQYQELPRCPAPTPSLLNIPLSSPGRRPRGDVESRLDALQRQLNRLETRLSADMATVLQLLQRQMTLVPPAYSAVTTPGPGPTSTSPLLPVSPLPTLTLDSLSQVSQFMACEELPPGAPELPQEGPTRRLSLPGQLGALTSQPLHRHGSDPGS

**Q.** Which results are given for `Cn1ccc(-c2cc(C(=O)Nc3ccc(OC(F)(F)Cl)cc3)cnc2N2CC[C@@H](F)C2)cc1=O` [Compound 16]?
**A.** bioavailability [1]: 93.2%; Cmax [1]: 1880 ng/mL; Tmax [1]: 3 h; half-life [1]: 1.46 h; AUC(0-t) [1]: 9690 ng·h/mL; MRT last [1]: 3.33 h; GI50 [2]: 4.7 nM; IC50 [3]: 2.1 nM

**Q.** With `CN(C)c1ncc(C(=O)Nc2ccc(OC(F)(F)Cl)cc2)cc1-c1cc(=O)n(C)cn1` [Compound 61] as the molecule, how does the bioavailability [1] read?
**A.** 95.1%

**Q.** And the Cmax [1]?
**A.** 3200 ng/mL

**Q.** And the Tmax [1]?
**A.** 2 h

**Q.** What about the half-life [1] of the same molecule?
**A.** 10.4 h

**Q.** What about the AUC(0-t) [1] of the same molecule?
**A.** 24100 ng·h/mL

**Q.** What about the MRT last [1] of the same molecule?
**A.** 4.83 h

**Q.** And the GI50 [2]?
**A.** 3 nM

**Q.** What about the IC50 [3] of the same molecule?
**A.** 5.6 nM

**Q.** With `O=C(Nc1ccc(OC(F)(F)Cl)cc1)c1cnc(N2CC(O)C2)c(-c2cc3c([nH]2)C(=O)NC3)c1` [Compound 104] as the molecule, how does the GI50 [2] read?
**A.** 0.86 nM

**Q.** And the IC50 [3]?
**A.** 1.2 nM

**Q.** What about the IC50 [4] of the same molecule?
**A.** > 30000 nM

**Q.** Which GI50 [2] does the source give for `O=C(Nc1ccc(OC(F)(F)Cl)cc1)c1cnc(N2CC[C@@H](O)C2)c(-c2cc3c([nH]2)C(=O)NC3)c1` [Compound 106] here?
**A.** 0.54 nM

**Q.** What about the IC50 [3] of the same molecule?
**A.** 1.1 nM

**Q.** What about the IC50 [4] of the same molecule?
**A.** > 30000 nM
